Key:
C57BL/6J male mice [1] = conditions: mouse, in vivo
Procedure: (§1) Recombinant human GDF15/MIC-1 protein (CHO-derived) was purchased from PeproTech Inc. (Cranbury, USA) and described in Example 1. […] For in vitro studies, solid lyophilized powder of these two drugs were solubilized at the recommended concentrations in sterile water, and separate aliquots were made and frozen until thawing prior to addition to cell cultures. For in vivo studies, all agents were dissolved in […] normal saline according to the required concentrations (doxorubicin, 5 mg/kg; GDF15, 0.5 mg/kg; dexrazoxane, […]), and the final volume of each intraperitoneal injection was 100 μl. The recommended dose ratio of dexrazoxane to doxorubicin was 10 to 1. In the following examples, 5 mg/kg of doxorubicin was used which correspond to 50 mg/kg of dexrazoxane. The FDA recommends that dexrazoxane be injected within 0.5 hour prior to doxorubicin infusion in individuals. This was followed in the same manner when applying to the test animals.
The body weight of each mouse was recorded weekly, before each doxorubicin injection and before sacrifice. At the end of experiment, all mice were euthanized with sodium pentobarbital 100 mg/kg administered intraperitoneally, and the hearts were excised immediately. The tibia of the mice were carefully dissected and its length was measured. […]

[2] = cancer survivors exposed to >250 mg/m2 doxorubicin vs. non-exposed; cited from earlier work
hESC-CMs = assay: Mitochondrial membrane potential (TMRE); type: cell-based, human
Procedure: Mitochondrial membrane potential (MMP) as a measure of mitochondrial function and viability was assessed using tetramethylrhodamine ethyl ester (TMRE) (Thermo Fisher Scientific, USA), a cell-permeant cationic fluorescent dye that is readily taken up by viable mitochondria. hESC-CMs seeded at 15,000 cells per well on a 96-well flat-bottom microtiter plate were cultured at 37° C. in a humidified 5% CO2 atmosphere for at least 3 days before MMP measurement. TMRE dye was applied at 50 nM for 20 minutes in B27+/RPMI−1640 media, followed by fluorescence reading at excitation and emission wavelengths of 485 nm and 528 nm, respectively, using the Synergy HTX Multi-Mode microplate reader.

C57BL/6J male mice [3] = assay: TUNEL staining of mouse myocardium (cardiomyocyte apoptosis); type: in vivo; conditions: pretreatment before doxorubicin
Procedure: as §1
To induce cardiotoxicity in the mouse, four weekly intraperitoneal injections of doxorubicin at 5 mg/kg were administered. After one dose of doxorubicin at 5-6 mg/kg in a mouse, the level of exposure has been estimated to be similar to that of a human individual being given a standard dose of doxorubicin at approximately 60 mg/m^2. […]

Compound | heart weight-to-tibia length ratio (C57BL/6J male mice [1]) | hazard ratio for developing heart failure [2] | mitochondrial membrane potential and function (TMRE) (hESC-CMs; 300 ng/ml GDF15 pretreatment, hESC-CMs exposed to doxorubicin) | mitochondrial membrane potential compared with dexrazoxane (hESC-CMs; hESC-CMs, pretreatment in the presence of Dox) | cardiomyocyte death by apoptosis (TUNEL staining) (C57BL/6J male mice [3])
COc1cccc2c1C(=O)c1c(O)c3c(c(O)c1C2=O)C[C@@](O)(C(=O)CO)C[C@@H]3OC1C[C@H](N)[C@H](O)[C@H](C)O1.Cl (stereo partly drawn) [Dox, (8S,10S)-10-[(3-Amino-2,3,6-trideoxy-L-lyxohexopyranosyl)oxy]-7,8,9,10-tetrahydro-6,8,11-trihydroxy-8-(hydroxyacetyl)-1-methoxynaphthacene-5,12-dione hydrochloride, reference compound] | decrease | 8.6 | – | – | –
GDF15: commercially available recombinant human GDF-15 protein (PeproTech 120-28C), CHO cell-derived, SEQ ID NO: 1 | – | – | better preserved than at other concentrations | performed similarly to dexrazoxane | reduced extent of cardiomyocyte death by apoptosis

Source: US12209112B2, “Methods of preventing or treating diseases, conditions, or disorders associated with chemotherapy” (The Chinese University of Hong Kong, priority 2022, dated 2025)
